The numbers were not newly measured in patent publication US8835486B2, “Pharmaceutical formulation containing an HMG-COA reductase inhibitor and method for the preparation thereof” (priority 2006, dated 2014), which cites them from elsewhere.

SMILES strings stand for the structures.

Turning to `CC(C)n1c(/C=C/C(O)CC(O)CC(=O)O)c(-c2ccc(F)cc2)c2ccccc21` (stereo not shown) [Fluvastatin], the solubility in water was above 50 mg/mL.
